Assay [1] addresses T1, ApK (A. phagocytophilum DnaK) (Anaplasma phagocytophilum, UniProt Q2GKZ8).
T1 sequence (Q2GKZ8 1-645): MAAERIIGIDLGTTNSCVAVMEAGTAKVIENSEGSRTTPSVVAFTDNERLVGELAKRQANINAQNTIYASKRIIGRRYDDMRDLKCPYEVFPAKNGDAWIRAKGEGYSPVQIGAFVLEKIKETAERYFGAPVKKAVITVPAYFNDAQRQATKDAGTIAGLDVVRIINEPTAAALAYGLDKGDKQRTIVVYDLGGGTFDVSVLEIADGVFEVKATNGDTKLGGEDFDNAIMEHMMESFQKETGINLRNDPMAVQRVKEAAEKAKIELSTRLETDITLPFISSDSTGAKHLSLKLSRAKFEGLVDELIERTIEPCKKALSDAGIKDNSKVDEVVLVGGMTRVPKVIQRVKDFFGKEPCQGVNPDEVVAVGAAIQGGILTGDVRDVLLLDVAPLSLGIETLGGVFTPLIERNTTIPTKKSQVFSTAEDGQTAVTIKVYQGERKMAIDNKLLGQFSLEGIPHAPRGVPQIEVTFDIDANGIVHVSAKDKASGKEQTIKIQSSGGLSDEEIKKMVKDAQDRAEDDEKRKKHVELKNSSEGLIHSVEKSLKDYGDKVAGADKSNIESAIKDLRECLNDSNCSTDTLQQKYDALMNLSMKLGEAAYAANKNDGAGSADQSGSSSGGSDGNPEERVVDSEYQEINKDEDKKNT
Nature of the assay: fluorescence anisotropy of FITC-labeled peptide B2 (nucleotide effect on peptide binding). The settings on record: 2 mM ADP; indirect read-out through labelled peptide B2.

Assay [2] addresses EcB (E. coli ClpB) (Escherichia coli, UniProt P63284). Nature of the assay: malachite green phosphate release (ATPase). Type of assay: biochemical. The settings on record: 5 mM ATP, 20 mM MgCl2, pH 7.4, 37 °C; basal (no casein or poly-lysine).
Assay [3] addresses T1, ApK (A. phagocytophilum DnaK). Put plainly: malachite green phosphate release (ATPase). The assay is classed as biochemical. The following applies: 5 mM ATP, 20 mM MgCl2, pH 7.4, 37 °C; basal (no casein or poly-lysine).
In assay [4] the target is EcK (E. coli DnaK) (Escherichia coli, UniProt P0A6Y8). The settings on record: 5 mM ATP, 20 mM MgCl2, pH 7.4, 37 °C; basal (no casein or poly-lysine).
Assay [5] addresses T2, ApB (A. phagocytophilum ClpB) (Anaplasma phagocytophilum, UniProt Q2GL99).
T2 sequence (Q2GL99 1-859): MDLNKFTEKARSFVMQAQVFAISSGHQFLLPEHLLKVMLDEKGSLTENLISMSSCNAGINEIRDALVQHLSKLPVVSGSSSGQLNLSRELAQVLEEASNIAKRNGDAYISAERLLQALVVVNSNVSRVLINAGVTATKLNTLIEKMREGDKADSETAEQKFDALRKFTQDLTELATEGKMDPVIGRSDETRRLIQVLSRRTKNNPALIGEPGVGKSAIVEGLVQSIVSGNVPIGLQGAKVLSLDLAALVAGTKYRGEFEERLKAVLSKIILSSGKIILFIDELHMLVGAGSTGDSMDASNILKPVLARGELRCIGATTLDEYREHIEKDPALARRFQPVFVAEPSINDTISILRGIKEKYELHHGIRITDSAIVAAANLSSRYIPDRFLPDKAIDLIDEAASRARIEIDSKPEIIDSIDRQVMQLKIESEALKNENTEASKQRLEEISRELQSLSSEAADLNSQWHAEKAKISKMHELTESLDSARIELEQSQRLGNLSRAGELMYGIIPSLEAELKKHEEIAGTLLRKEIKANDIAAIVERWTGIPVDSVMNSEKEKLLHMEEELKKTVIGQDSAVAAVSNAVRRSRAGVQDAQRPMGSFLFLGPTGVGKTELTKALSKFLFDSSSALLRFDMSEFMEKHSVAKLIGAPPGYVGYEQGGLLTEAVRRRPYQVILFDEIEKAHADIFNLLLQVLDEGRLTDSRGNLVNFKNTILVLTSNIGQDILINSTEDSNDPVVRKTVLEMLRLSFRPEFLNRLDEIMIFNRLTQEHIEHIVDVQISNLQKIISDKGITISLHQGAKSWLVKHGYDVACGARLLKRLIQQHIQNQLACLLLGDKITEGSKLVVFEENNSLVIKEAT
The following applies: 5 mM ATP, 20 mM MgCl2, pH 7.4, 37 °C; basal (no casein or poly-lysine).

Sequence of EcK (E. coli DnaK) (P0A6Y8 2-638): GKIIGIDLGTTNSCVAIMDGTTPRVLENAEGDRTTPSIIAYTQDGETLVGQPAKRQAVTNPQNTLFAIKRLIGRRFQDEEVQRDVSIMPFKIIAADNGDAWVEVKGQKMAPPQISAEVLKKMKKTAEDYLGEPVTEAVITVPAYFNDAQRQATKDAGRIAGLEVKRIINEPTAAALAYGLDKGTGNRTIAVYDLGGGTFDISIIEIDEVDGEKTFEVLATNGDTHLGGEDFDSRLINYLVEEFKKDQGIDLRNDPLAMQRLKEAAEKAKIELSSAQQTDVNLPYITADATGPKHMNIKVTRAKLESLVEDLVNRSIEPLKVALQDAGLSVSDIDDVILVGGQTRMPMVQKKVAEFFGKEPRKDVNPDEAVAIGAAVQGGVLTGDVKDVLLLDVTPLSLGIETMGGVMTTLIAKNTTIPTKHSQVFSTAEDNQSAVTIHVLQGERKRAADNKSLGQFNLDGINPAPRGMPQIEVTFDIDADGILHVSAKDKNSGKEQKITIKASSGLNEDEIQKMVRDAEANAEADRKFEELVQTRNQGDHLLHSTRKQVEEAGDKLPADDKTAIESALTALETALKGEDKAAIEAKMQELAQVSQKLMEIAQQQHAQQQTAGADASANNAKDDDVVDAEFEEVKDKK
Sequence of EcB (E. coli ClpB) (P63284 whole entry): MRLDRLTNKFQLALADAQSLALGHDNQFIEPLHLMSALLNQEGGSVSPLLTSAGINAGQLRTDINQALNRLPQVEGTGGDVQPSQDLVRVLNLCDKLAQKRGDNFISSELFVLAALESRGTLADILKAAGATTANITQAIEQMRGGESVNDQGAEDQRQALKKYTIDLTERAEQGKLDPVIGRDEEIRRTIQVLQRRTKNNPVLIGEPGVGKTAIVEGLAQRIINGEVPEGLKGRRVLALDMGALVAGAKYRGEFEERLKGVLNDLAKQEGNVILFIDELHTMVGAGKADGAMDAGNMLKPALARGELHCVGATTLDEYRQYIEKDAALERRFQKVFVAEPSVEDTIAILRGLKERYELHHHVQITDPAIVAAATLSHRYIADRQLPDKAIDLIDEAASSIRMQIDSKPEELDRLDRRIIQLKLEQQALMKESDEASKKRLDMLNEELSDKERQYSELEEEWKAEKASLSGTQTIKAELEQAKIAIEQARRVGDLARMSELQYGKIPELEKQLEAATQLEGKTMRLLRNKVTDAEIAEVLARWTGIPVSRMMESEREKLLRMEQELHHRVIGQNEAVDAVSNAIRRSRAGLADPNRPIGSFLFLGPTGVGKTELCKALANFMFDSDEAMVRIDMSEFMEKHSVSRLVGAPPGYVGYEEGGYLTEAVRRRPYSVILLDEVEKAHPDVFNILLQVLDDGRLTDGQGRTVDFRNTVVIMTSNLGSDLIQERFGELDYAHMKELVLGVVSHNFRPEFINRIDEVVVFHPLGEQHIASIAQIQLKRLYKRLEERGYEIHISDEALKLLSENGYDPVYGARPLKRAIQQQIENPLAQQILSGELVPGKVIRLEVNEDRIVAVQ

For `Nc1ncnc2c1ncn2[C@@H]1O[C@H](COP(=O)(O)OP(=O)(O)O)[C@@H](O)[C@H]1O` [ADP], the “fluorescence anisotropy of FITC-labeled peptide B2 (nucleotide effect on peptide)” value in assay [1] is “ADP induced a strong binding of B2 to ApK”.

Consider `Nc1ncnc2c1ncn2[C@@H]1O[C@H](COP(=O)(O)OP(=O)(O)OP(=O)(O)O)[C@@H](O)[C@H]1O` [ATP], for which the ATPase activity entry was “the basal ATPase activity of ApB exceeded that of EcB” in assay [2], “The basal ATPase activity of ApK was lower than that of EcK” in assay [3], “The basal ATPase activity of ApK was lower than that of EcK” in assay [4] and “the basal ATPase activity of ApB exceeded that of EcB” in assay [5].

(Values after paper PMC11268196, “Biochemical characterization of ClpB and DnaK from Anaplasma phagocytophilum” (Cell Stress & Chaperones, 2024).)
